Test results: publication PMC6345859, “Copper amine oxidases catalyze the oxidative deamination and hydrolysis of cyclic imines” (Nature Communications, 2019)
Positions count from the first letter of the chain named.

What was measured:
[1] = molecular target: T1, HarA (harmaline-metabolizing enzyme, copper amine oxidase) (Arthrobacter sp., UniProt A0A5A4PV14); assay: resonance Raman and anaerobic UV-vis spectroscopy; format: binding; settings: covalent imine adduct with TPQ, difference against Y379F
T1 construct: purified from strain C-4A, or recombinant from E. coli BL21-CodonPlus(DE3)-RIL (pETDuet-harA); 71 kDa subunit, 130 kDa native, homodimer; TPQ cofactor from Y379, Cu2+
T1 sequence (A0A5A4PV14 1-649): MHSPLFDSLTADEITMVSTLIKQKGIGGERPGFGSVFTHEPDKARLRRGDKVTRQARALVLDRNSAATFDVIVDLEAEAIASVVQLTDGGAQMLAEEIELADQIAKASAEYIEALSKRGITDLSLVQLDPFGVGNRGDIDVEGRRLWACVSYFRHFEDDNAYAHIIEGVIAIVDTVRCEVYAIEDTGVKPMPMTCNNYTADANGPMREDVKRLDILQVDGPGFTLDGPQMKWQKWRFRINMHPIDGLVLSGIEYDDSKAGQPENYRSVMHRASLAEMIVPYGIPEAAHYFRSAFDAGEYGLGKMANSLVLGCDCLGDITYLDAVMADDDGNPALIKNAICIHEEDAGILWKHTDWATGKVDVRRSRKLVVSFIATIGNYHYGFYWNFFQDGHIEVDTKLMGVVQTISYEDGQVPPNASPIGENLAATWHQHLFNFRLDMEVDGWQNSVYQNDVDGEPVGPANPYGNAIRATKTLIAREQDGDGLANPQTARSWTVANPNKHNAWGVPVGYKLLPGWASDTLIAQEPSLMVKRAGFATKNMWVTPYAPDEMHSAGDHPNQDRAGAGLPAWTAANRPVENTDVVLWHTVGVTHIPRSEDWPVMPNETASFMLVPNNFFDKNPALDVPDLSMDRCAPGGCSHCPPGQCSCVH

[2] = molecular target: T2, ECAO (copper amine oxidase from E. coli) (Escherichia coli, UniProt P46883); assay: LC/MS or HPLC product detection; format: biochemical; settings: 0.5 mg/mL enzyme
T2 construct: gene tynA; recombinant, pET24a(+)-tynA in E. coli BL21-CodonPlus(DE3)-RIL, purified; TPQ cofactor
T2 sequence (P46883 31-757): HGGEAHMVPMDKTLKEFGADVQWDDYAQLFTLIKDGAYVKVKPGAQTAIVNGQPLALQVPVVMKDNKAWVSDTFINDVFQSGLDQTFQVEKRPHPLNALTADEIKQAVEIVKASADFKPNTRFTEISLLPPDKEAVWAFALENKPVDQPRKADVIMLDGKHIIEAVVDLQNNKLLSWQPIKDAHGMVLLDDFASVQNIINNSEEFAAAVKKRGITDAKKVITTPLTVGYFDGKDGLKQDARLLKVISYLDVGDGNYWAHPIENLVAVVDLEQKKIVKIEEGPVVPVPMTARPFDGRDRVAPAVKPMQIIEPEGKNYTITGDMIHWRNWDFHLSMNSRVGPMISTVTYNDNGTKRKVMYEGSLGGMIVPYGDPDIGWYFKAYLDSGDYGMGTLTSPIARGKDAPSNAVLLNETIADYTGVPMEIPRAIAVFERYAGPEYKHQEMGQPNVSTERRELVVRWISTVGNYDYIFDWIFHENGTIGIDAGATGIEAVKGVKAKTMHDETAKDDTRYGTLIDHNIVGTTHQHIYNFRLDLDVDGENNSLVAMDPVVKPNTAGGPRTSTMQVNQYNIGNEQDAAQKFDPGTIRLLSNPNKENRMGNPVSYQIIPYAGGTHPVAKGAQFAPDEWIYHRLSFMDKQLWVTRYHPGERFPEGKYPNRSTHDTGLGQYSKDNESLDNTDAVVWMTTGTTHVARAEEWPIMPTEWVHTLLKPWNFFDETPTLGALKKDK

[3] = molecular target: T1, HarA (harmaline-metabolizing enzyme, copper amine oxidase); assay: LC/MS/MS of chymotryptic nonapeptide; phenylhydrazine titration; format: binding; settings: covalent; adduct with TPQ cofactor (Y379); […] Tris-HCl pH […] digest
[4] = molecular target: T3, HarA (harmaline-metabolizing enzyme, copper amine oxidase) (Arthrobacter sp., UniProt A0A5A4PV14, D295E); assay: LC/MS product detection; format: biochemical; settings: […] Hepes-NaOH pH […] °C
T3 construct: purified from strain C-4A, or recombinant from E. coli BL21-CodonPlus(DE3)-RIL (pETDuet-harA); 71 kDa subunit, 130 kDa native, homodimer; TPQ cofactor from Y379, Cu2+
T3 sequence (A0A5A4PV14 1-649 D295E): T1 sequence (A0A5A4PV14 1-649) with D295E

[5] = system: COc1ccc2c3c([nH]c2c1)C(C)=NCC3; assay: purified protein; settings: 20 mM Hepes-NaOH pH 7.0, 28 °C, O2 co-substrate
C=C1CCCCN1 = assay: purified protein; settings: 20 mM Hepes-NaOH pH 7.0, 28 °C, O2 co-substrate, named as the enamine tautomer, treated in the paper as a cyclic imine

In the case of NCc1ccccc1 [BA, benzylamine], the “resonance Raman and anaerobic UV-vis spectroscopy” value [1] is reported as “we observed a benzylamine adduct, which would be the inactive deprotonated imine intermediate, in HarA”.

In the case of COc1ccc2c3c([nH]c2c1)C(C)=NCC3 [harmaline], the “LC/MS or HPLC product detection” value [2] is reported as “The purified ECAO was able to convert harmaline into 2-AIMA”.

With NNc1ccccc1 [phenylhydrazine] the “LC/MS/MS of chymotryptic nonapeptide; phenylhydrazine titration” value [3] was “TPQ was also detected as a phenylhydrazine adduct in the nonapeptide”.

For NCCc1c[nH]c2ccccc12 [tryptamine], the LC/MS product detection [4] was “D295E mutant catalyzed deamination of tryptamine, although the activity was less than that of wild-type”.

“HarA (harmaline-metabolizing enzyme, copper amine oxidase) (Arthrobacter sp.)” gave a Km [5] of 439 µM and a Km (C=C1CCCCN1) of 1700 µM.
